The values that follow come from patent publication US4774381A, “Herbicide resistant tobacco” (E. I. Du Pont de Nemours and Company, priority 1985, dated 1988).

For test [1], the system named is H1 (parent) callus. Briefly: Callus growth test with chlorsulfuron and structural analogues. In kind it is cell-based, Nicotiana tabacum. Conditions: 10 ppb compound, 2 weeks in the dark. The procedure:
(§1) In these growth tests, petri dishes containing C1 agar medium and 10 ppb of the sulfonamide herbicide chlorsulfuron and Compounds A through E were prepared. A sterile filter paper disc was placed in the center of each plate, and inoculated with 250 mg of callus tissue homozygous for the S4 mutation, or callus tissue derived from the haploid parent H1. The resulting cultures were incubated at 25° in the dark for 2 weeks. At the conclusion of the incubation period, filter discs containing callus cells were removed from culture dishes, placed on a Buchner funnel, and gentle suction applied to remove excess water. The resulting callus mass was then carefully scraped from the filter disc and weighed. Four replicates were included in each experiment.

Test [2] concerns S4/S4 callus. The test is described as above. The format is cell-based, Nicotiana tabacum. Conditions: 10 ppb compound, 2 weeks in the dark. The method, then:
as §1

In test [3] the test system is acetolactate synthase (ALS), Isolate 23 (S4/+) extract. The experiment in a line: ALS activity assay in cell extracts. The format is biochemical, Nicotiana tabacum. The method, then: (§2) Cell suspension cultures of normal (H1) and homozygous mutant (Isolate 16) cell lines were washed in C1 liquid medium. After washing, cells were extracted in a 100 mM potassium phosphate buffer (pH 7.5) containing 0.5 mM MgCl2, 1 mM sodium pyruvate, 0.5 mM thiamine pyrophosphate, 10 micromolar flavine-adenine dinucleotide (FAD) and 10 percent (by volume) glycerol. Polyclar AT (BDH Chemicals Ltd) was added to a final concentration of 250 mg per gram fresh weight of tissue. After centrifugation at 27,000xg for 15 minutes at 4°, an equal volume of a saturated solution of amminium sulfate was added to the supernatant fraction. The resultant precipitate (representing a 0 to 50 percent ammonium sulfate fraction) was redissolved in 100 mM potassium phosphate buffer (pH 7.5) containing 0.5 mM MgCl2, 1 mM sodium pyruvate, and salts were removed by passage through a Sephadex G-25 (Pharmacia PD-10) column.
(§3) ALS activity was assayed in a total volume of 500 microliters containing 100 microliters of the column eluate, 65 mM potassium phosphate buffer (pH 7.5) containing 10 mM MgCl2, 40 mM sodium pyruvate, 250 micromolar thiamine pyrophosphate, 23 micromolar FAD, […] After incubation at 30° for 90 minutes, 250 microliters of 6N H2 SO4 was added to each assay tube, and the tubes were incubated at 55° for 10 minutes to terminate the enzymatic reaction and achieve complete conversion of acetolactate to acetoin. Acetoin content was then measured by a modification of the procedure described by Westerfield, J. Biol. Chem. 161:495 (1945). To each tube was added sequentially 100 microliters 50 percent NaOH, 150 microliters 0.5 percent creatine, and 150 microliters 5 percent alpha-napthol (in 2.5N NaOH). Color development was accelerated by incubation at 55° for 10 minutes. Tubes were then centrifuged, and the optical density was read at 530 nm. Background optical densities, which were subtracted from the optical density values of the reactions, were determined for each extract from parallel assays to which the enzyme extract was added after the addition of 6N H2 SO4. Protein concentrations were measured with Bio-Rad Protein Assay reagent with bovine serum albumin as a standard. Data points and specific activities, which are set forth below and in FIG. 2, represent the average values of at least three independent determinations. ALS activities are presented in FIG. 2 as percent activity in the absence of herbicide.
(§4) Responses to chlorsulfuron were determined for ALS activities in extracts of cells suspension cultures derived from nine individuals that differed with resepct to the S4 mutation. As described above, these individuals were produced by self-fertilization of an S4/+ heterozygote, and their genotypes were established by means of progeny analysis. Callus and plant phenotypes were determined by growth responses of cell cultures and seedlings, respectively, on herbicide-supplemented medium. […] In contrast, all individuals homozygous for the S4 mutation contained a highly resistant form of the enzyme. […] The correlation between both callus and plant phenotype and the response of ALS activity in vitro to the herbicide is both absolute and quantitative.

Test [4] concerns acetolactate synthase (ALS), Isolate 10 (S4/+) extract. Briefly: ALS activity assay in cell extracts. In kind it is biochemical, Nicotiana tabacum. The method, then: as §2, §3, §4
The subject of test [5] is homozygous mutant (S4) plants. The experiment in a line: Foliar spray whole plant test. The format is in vivo, Nicotiana tabacum. The procedure: (§5) Further studies of the effect of the S4 mutation on whole plant response to chlorsulfuron were conducted with plants of the parental variety and progeny of homozygous mutant and homozygous normal isolates (Nos. 16 and 1, respectively) of the previously described backcross program. Accordingly, plants of the latter two types were derived, but separated by four generations, from the initial S4 mutant plant regenerated from callus culture.
(§6) Plants at the 4-5 leaf stage were treated with foliar sprays of an aqueous solution containing 10% (v/v) acetone, 0.2% polyoxyethylene sorbitan monolaurate (Tween 20 ), and 1,3, 10, 30 or 100 ppm chlorsulfuron. Each plant received 5 mL of a spray solution. Two weeks after treatment, plants were evaluated for phytotoxicity and shoot heights were measured. […] At this lowest level of application, apical buds and youngest leaves of these sensitive plants were chlorotic. […] These symptoms were more pronounced with increasing chlorsulfuron concentrations. […] In contrast, homozygous mutant plants were unaffected by treatment with chlorsulfuron, even at the highest test concentration of 100 ppm.

Test [6] deals with parental and homozygous normal plants. The experiment in a line: Foliar spray whole plant test. The format is in vivo, Nicotiana tabacum. Conditions: 5 mL spray. The procedure: as §5, §6

`COc1nc(C)nc(NC(=O)NS(=O)(=O)c2ccccc2Cl)n1` [Chlorsulfuron, chlorsulfuron]: the “Mean Fresh Weight” value in test [1] is reported as 0 g; in test [2], 4.42 g. In addition, the “Uninhibited activity (%) in the Presence of Chlorsulfuron” value is on record as 64% in test [3] (10 ppb); 53% in test [3] (30 ppb); 46% in test [3] (100 ppb); 61% in test [4] (10 ppb); 52% in test [4] (30 ppb); 45% in test [4] (100 ppb). The “increase of resistance of plants by S4 mutation” value in test [5] (homozygous state) is recorded as “at least 100 fold”. Further, the “phytotoxicity two weeks after foliar spray” value in test [5] (up to highest test concentration of 100 ppm chlorsulfuron) is “unaffected”; in test [6] (1 ppm chlorsulfuron, 4-5 leaf stage) it was “developed symptoms of phytotoxicity”; in test [6] (3 ppm chlorsulfuron), “chlorosis was more severe and growth retardation readily apparent”; in test [6] (100 ppm chlorsulfuron), “extreme growth inhibition, chlorosis, and necrosis”.
